# Reference: PubChem BioAssay AID1159605 (The Scripps Research Institute Molecular Screening Center, 2016)
# Active and inactive are the calls of the source.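 Rule for the calls: active = IC50 of 10 µM or lower; inactive = IC50 above 10 µM.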
# Molecular target: Mitogen-activated protein kinase kinase kinase 5 (Homo sapiens) (UniProt Q99683)
# Experiment: MAP3K5 inhibition concentration-response curves – biochemical, AlphaScreen, MKK6 phosphorylation, dose response (AID 1159605);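 note: ASK1 phosphorylation of MKK6 substrate detected with anti-phospho-MKK6 antibody beads; inhibitors lower the luminescent signal by blocking MKK6 phosphorylation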
# Settings: ASK1 MKK6 phosphorylation, AlphaScreen luminescence
# Chain of Mitogen-activated protein kinase kinase kinase 5 (Homo sapiens) (Q99683 whole entry, looked up): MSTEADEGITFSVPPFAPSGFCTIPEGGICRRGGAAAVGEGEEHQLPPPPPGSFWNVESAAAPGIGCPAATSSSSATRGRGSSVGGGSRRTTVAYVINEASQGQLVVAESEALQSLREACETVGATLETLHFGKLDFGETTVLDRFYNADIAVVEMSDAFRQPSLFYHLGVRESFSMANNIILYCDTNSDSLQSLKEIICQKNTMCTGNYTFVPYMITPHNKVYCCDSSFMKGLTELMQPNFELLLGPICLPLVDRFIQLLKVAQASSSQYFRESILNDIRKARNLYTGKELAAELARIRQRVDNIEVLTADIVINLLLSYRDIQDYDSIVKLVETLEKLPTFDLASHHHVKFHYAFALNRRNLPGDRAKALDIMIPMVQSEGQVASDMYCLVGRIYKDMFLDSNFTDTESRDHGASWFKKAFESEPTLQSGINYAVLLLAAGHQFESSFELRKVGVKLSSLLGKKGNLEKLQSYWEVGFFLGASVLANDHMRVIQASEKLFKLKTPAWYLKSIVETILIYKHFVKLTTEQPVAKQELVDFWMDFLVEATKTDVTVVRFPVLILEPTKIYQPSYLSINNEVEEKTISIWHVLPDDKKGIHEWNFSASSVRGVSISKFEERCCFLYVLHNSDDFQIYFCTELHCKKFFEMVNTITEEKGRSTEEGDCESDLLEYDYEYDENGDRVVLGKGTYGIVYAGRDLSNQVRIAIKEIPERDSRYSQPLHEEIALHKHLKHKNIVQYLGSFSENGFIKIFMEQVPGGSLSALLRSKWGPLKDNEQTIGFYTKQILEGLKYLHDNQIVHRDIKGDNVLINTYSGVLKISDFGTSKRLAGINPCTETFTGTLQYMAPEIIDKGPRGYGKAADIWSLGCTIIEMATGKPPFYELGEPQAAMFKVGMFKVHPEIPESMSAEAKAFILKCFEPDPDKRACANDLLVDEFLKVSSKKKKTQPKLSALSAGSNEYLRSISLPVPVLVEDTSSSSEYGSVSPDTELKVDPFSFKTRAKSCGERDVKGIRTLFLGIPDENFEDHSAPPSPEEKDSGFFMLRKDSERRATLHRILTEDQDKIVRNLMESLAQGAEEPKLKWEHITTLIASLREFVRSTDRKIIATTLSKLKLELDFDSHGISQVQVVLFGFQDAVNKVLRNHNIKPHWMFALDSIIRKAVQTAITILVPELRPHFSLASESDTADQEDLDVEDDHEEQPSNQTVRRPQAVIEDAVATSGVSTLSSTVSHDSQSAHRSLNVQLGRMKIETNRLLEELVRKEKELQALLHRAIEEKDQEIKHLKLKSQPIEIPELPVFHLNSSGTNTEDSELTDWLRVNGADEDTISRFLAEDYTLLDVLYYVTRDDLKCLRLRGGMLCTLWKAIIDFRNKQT
row,SMILES,IC50
1,CC(C)n1cnc2c(Nc3ccc4c(c3)OCO4)nc(Nc3ccc(N4CCOCC4)cc3)nc21,> 20 µM (inactive)
2,COc1ccc(CCNc2nc(N3CCN(Cc4ccc5c(c4)OCO5)CC3)nc3c2ncn3C2CCCCC2)cc1,> 22.5 µM (inactive)
3,CCN(CC)C(=O)C1CCCN(c2nc(Nc3ccc(N4CCOCC4)cc3)c3ncn(Cc4ccc(C(F)(F)F)cc4)c3n2)C1 (centres undefined),inactive
4,COc1cc2nc(Nc3cc(OC)c(OC)c(OC)c3)nc(Nc3ccc(N4CCOCC4)cc3)c2cc1OC,> 20.3 µM (inactive)
5,CC(C)n1cnc2c(Nc3ccc(N4CCOCC4)cc3)nc(N3CCN(c4ccccn4)CC3)nc21,inactive
6,COc1cc2nc(NCc3ccc4c(c3)OCO4)nc(Nc3ccc(N4CCOCC4)cc3)c2cc1OC,> 19.9 µM (inactive)
7,Nc1nc(Nc2ccc(N3CCOCC3)cc2)cc(NC2CCN(Cc3ccccc3)CC2)n1,> 23.1 µM (inactive)
8,c1ccc(CN2CCC(Nc3nc(Nc4ccc(N5CCOCC5)cc4)nc4c3ncn4-c3ccsc3)CC2)cc1,9.41 µM
9,COc1cc2nc(Nc3cccc(N(C)C)c3)nc(Nc3cc(OC)c(OC)c(OC)c3)c2cc1OC,> 19 µM (inactive)
10,CN(C)c1cc(F)cc(-c2ccnc(Nc3ccc(-n4cnc(N5CCC(O)CC5)n4)cc3)n2)c1,> 19.2 µM (inactive)
11,COc1cc2nc(Nc3ccc(N4CCOCC4)cc3)nc(Nc3ccccc3)c2cc1OC,> 20.1 µM (inactive)
12,Cn1cc(-c2ccc3cnc(Nc4ccc(-n5cnc(N6CCOCC6)n5)cc4)nc3c2)cn1,> 19.2 µM (inactive)
13,FC(F)(F)c1cccc(CNc2nc(Nc3ccc(N4CCOCC4)cc3)nc3c2ncn3-c2ccsc2)c1,8.62 µM
14,CC(C)n1cnc2c(NC3CC3)nc(N3CCN(c4ccccn4)CC3)nc21,inactive
15,Cc1ccccc1-c1cscc1Nc1cnn(-c2cccc(C(=O)Nc3ccc(N4CCOCC4)cc3)c2)c1,> 19.2 µM (inactive)
16,c1nc(Nc2ccc(N3CCOCC3)cc2)c2[nH]c(N3CCN(Cc4ccc5c(c4)OCO5)CC3)nc2n1,> 13.8 µM (inactive)
17,COc1cc(Nc2nc(Nc3ccc(N4CCOCC4)cc3)c3ncn(Cc4ccc(C(F)(F)F)cc4)c3n2)cc(OC)c1OC,inactive
18,COc1ccc(CCNc2nc(Nc3ccc(N4CCOCC4)cc3)nc3cc(OC)c(OC)cc23)cc1,inactive
19,OC1CCN(c2ccc(Nc3nccc(-c4cc(F)cc(N5CCN(C6CC6)CC5)c4)n3)cc2)CC1,> 19.2 µM (inactive)
20,Cc1cnc(-c2ccc(C(N)=O)cc2)nc1Nc1ccc(N2CCOCC2)cc1,inactive
21,Cn1cc(-c2ccc3cnc(Nc4ccc(-c5ccc(N6CCOCC6)nc5)cc4)nc3c2Cl)cn1,> 19.2 µM (inactive)

row,SMILES,IC50
1,CC(C)n1cnc2c(Nc3ccc(N4CCOCC4)cc3)nc(Nc3ccc(-n4ccnc4)cc3)nc21,> 19.1 µM (inactive)
2,c1ccc(N2CCN(c3nc(Nc4ccc(N5CCOCC5)cc4)c4ncn(-c5ccsc5)c4n3)CC2)nc1,inactive
3,Cc1cnc(-c2csc3ccccc23)nc1Nc1ccc(N2CCOCC2)cc1,> 20.1 µM (inactive)
4,CN(C)c1cccc(Nc2ccc(-n3cc(CC(=O)Nc4ccc5c(c4)OCO5)c4ccccc43)nn2)c1,> 19 µM (inactive)
5,c1cc(-n2cnc3c(NC4CC4)nc(Nc4ccc(N5CCOCC5)cc4)nc32)cs1,inactive
6,Fc1cnc(Nc2ccc(N3CCNCC3)cc2)cc1-n1cnc(Nc2ccccc2)n1,> 19.2 µM (inactive)
7,Oc1ccc(CCNc2nc(N3CCN(Cc4ccc5c(c4)OCO5)CC3)nc3c2ncn3-c2ccsc2)cc1,inactive
8,COc1cc(Nc2nc(N3CCc4ccccc4C3)nc3c2ncn3-c2ccccc2)cc(OC)c1OC,inactive
9,CN1CCN(c2nc(C3COc4ccccc4O3)nc3ccc(-c4cn[nH]c4)cc23)CC1 (centres undefined),> 19.2 µM (inactive)
10,COc1ccc(CCNc2nc(Nc3cccc(N(C)C)c3)nc3c2ncn3C(C)C)cc1,> 20 µM (inactive)
11,COc1ccc(CCNC(=O)c2ccnc(Nc3cccc(N(C)C)c3)c2)cc1,> 20 µM (inactive)
12,COc1cc2nc(Nc3nc4ccccc4n3C)nc(Nc3ccc(NC(C)=O)cc3)c2cc1OC,4.33 µM
13,Cc1ccc(-c2cccc3cnc(Nc4ccc(-n5cnc(C)n5)cc4)nc23)cn1,> 19.2 µM (inactive)
14,Cc1cc(NCCOc2ccccc2)nc(Nc2cccc(N(C)C)c2)n1,6.99 µM
15,Nc1nc(Nc2ccc(N3CCOCC3)cc2)cc(-c2ccc3[nH]ccc3c2)n1,8.21 µM
16,Fc1ccc(-c2c(-c3ccnc(Nc4ccc(N5CCOCC5)cc4)c3)noc2NCc2ccccc2)cc1,> 19.2 µM (inactive)
17,Cc1nc(C)n(-c2ccc(Nc3nccc(-c4cccc(-n5nccn5)c4)n3)cc2)n1,> 19.2 µM (inactive)
18,c1ccc(OCCNc2nc(N3CCN(Cc4ccc5c(c4)OCO5)CC3)nc3c2ncn3C2CCCCC2)cc1,inactive
19,Cc1cc(Nc2ccc(N3CCOCC3)cc2)nc(N2CCc3ccccc3C2)n1,inactive
20,COc1cc(Nc2ccnc(Nc3cccc(N(C)C)c3)n2)cc(OC)c1OC,6.84 µM
21,CN(C)c1cccc(Nc2ccc(-n3cc(CC(=O)Nc4ccc(N5CCOCC5)cc4)c4ccccc43)nn2)c1,> 20.1 µM (inactive)

row,SMILES,IC50
1,Cc1ccc(-c2ncn(-c3ccc(Nc4ncc(Cl)c(-c5ccnn5C)n4)cc3)n2)cn1,> 19.2 µM (inactive)
2,FC(F)(F)c1ccc(Cn2cnc3c(Nc4ccc(N5CCOCC5)cc4)nc(N4CCN(Cc5ccc6c(c5)OCO6)CC4)nc32)cc1,inactive
3,FC(F)(F)c1ccc(Cn2cnc3c(Nc4ccc(N5CCOCC5)cc4)nc(NC4CCN(Cc5ccccc5)CC4)nc32)cc1,inactive
4,FC(F)(F)c1cccc(CNc2nc(N3CCN(Cc4ccc5c(c4)OCO5)CC3)nc3c2ncn3-c2ccccc2)c1,> 20.1 µM (inactive)
5,CCN(CC)c1nc(Nc2ccc(N3CCOCC3)cc2)nc(Nc2ccc(-n3ccnc3)cc2)n1,8.79 µM
6,CN(C)c1cccc(Nc2nccc(NCc3cccc(C(F)(F)F)c3)n2)c1,> 16.5 µM (inactive)
7,Cc1cc(NCCc2ccc(O)cc2)nc(Nc2cccc(N(C)C)c2)n1,inactive
8,O=C(Cc1cn(-c2ccc(Nc3nccc4ccccc34)nn2)c2ccccc12)Nc1ccc2c(c1)OCO2,> 21.6 µM (inactive)
9,c1ccc2c(c1)OCC(c1nc(N3CCOCC3)c3cc(-c4cn[nH]c4)ccc3n1)O2 (centres undefined),> 19.2 µM (inactive)
10,c1cc(-n2cnc3c(Nc4ccc(N5CCOCC5)cc4)nc(NCc4ccc5c(c4)OCO5)nc32)cs1,> 19.9 µM (inactive)
11,O=C(Cc1cn(-c2ccc(N3CCN(Cc4ccc5c(c4)OCO5)CC3)nn2)c2ccccc12)Nc1ccc(N2CCOCC2)cc1,> 20 µM (inactive)
12,COc1ccc2c(c1)CC(C(=O)Nc1ccc(-c3cn[nH]c3)cc1OCCOCc1ccccc1)CO2 (centres undefined),> 19.2 µM (inactive)
13,O=C(NC1CC1)c1ccc(-c2nc(NCc3cccc(C(F)(F)F)c3)c3ncn(-c4ccccc4)c3n2)cc1,> 19.9 µM (inactive)
14,COc1c(-c2cnn(C)c2)ccc2cnc(Nc3ccc(-n4cnc(N5CCOCC5)n4)cc3)nc12,> 19.2 µM (inactive)
15,COc1ccc(CCNc2nc(Nc3cccc(N(C)C)c3)nc3cc(OC)c(OC)cc23)cc1,inactive
16,Nc1cccc(-c2nc3ncnc(Nc4ccc(N5CCOCC5)cc4)c3[nH]2)c1,> 18.2 µM (inactive)
17,COc1cc2nc(Nc3ccc(N4CCOCC4)cc3)nc(Nc3ccc(OCCN4CCCCC4)cc3)c2cc1OC,> 17.5 µM (inactive)
18,COc1ccc(CCNc2nc(Nc3ccc(N4CCOCC4)cc3)nc3c2ncn3-c2ccccc2)cc1,9.28 µM
19,COc1cc2nc(Nc3nccc4ccccc34)nc(Nc3ccc(N4CCOCC4)cc3)c2cc1OC,inactive
20,c1ccc(CN2CCC(Nc3ccnc(Nc4ccc(N5CCOCC5)cc4)n3)CC2)cc1,inactive
21,Cc1cc(Nc2ccc(N3CCOCC3)cc2)nc(Nc2ccccc2)n1,inactive

row,SMILES,IC50
1,CC(C)n1cnc2c(Nc3ccc(N4CCOCC4)cc3)nc(N3CCN(Cc4ccc5c(c4)OCO5)CC3)nc21,inactive
2,Nc1nc(Nc2ccc(N3CCOCC3)cc2)cc(Nc2ccc3c(c2)OCO3)n1,> 16.8 µM (inactive)
3,CC(C)NC(=O)c1cccc(NC(=O)Nc2ccc(-c3ccnc4[nH]ccc34)cc2)c1,> 19.2 µM (inactive)
4,FC(F)(F)c1cccc(CNc2nc(Nc3ccc(N4CCOCC4)cc3)nc3nc[nH]c23)c1,inactive
5,CN(C)c1cccc(Nc2nc(NCCc3ccc(O)cc3)c3ncn(C4CCCCC4)c3n2)c1,> 20 µM (inactive)
6,Cc1cc(Nc2ccc3c(c2)OCO3)nc(Nc2ccc(N3CCOCC3)cc2)n1,inactive
7,Cc1nc(C)n(-c2ccc(Nc3nccc(-c4cc(F)cc(-c5cn[nH]c5C)c4)n3)cc2)n1,> 19.2 µM (inactive)
8,FC(F)(F)c1ccc(Cn2cnc3c(Nc4ccc5c(c4)OCO5)nc(Nc4ccccc4)nc32)cc1,> 22 µM (inactive)
9,Cc1nc(C)n(-c2ccc(Nc3nccc(-c4cccc(-n5cncn5)c4)n3)cc2)n1,> 19.2 µM (inactive)
10,COc1ccc(CCNc2cc(C)nc(Nc3cccc(N(C)C)c3)n2)cc1,6.67 µM
11,CC(C)n1c(Nc2cccc(N(C)C)c2)nc2c(NC3CCN(Cc4ccccc4)CC3)ncnc21,> 18.8 µM (inactive)
12,c1cc(-n2cnc(N3CCOCC3)n2)ccc1Nc1ncc2ccc(-c3cn[nH]n3)cc2n1,> 19.2 µM (inactive)
13,CC(C)n1cnc2c(Nc3ccccc3)nc(Nc3ccc(N4CCOCC4)cc3)nc21,inactive
14,c1cc(-n2cnc3c(Nc4ccc(N5CCOCC5)cc4)nc(N4CCN(Cc5ccc6c(c5)OCO6)CC4)nc32)cs1,inactive
15,Cc1cc(Nc2ccc3c(c2)OCO3)nc(N2CCN(Cc3ccc4c(c3)OCO4)CC2)n1,inactive
16,Cc1cccc(Nc2ccc3c(cnn3-c3cccc(C(=O)NCCN4CCN(CC5CC5)CC4)c3)c2)c1Cl,> 19.2 µM (inactive)
17,c1ccc(-c2ncn[nH]2)c(Nc2ccnc(Nc3ccc(N4CCOCC4)cc3)c2)c1,> 19.2 µM (inactive)
18,Nc1cc(C2=C3C=CN=C3C(=O)NCC2)c(O)[nH]1,> 19.2 µM (inactive)
19,c1cc(Nc2ccc3c(c2)OCO3)nc(Nc2ccc(N3CCOCC3)cc2)n1,inactive
20,COc1cc2nc(Nc3ccc(N4CCOCC4)cc3)nc(Nc3ccc4c(c3)OCO4)c2cc1OC,inactive
21,CN(C)c1cccc(Nc2nc(NCCc3ccc(O)cc3)c3ncn(Cc4ccc(C(F)(F)F)cc4)c3n2)c1,inactive
